# Reference: US20260185169A1, “MOLECULAR SIGNATURES TO PREDICT LONG-TERM LIVER FIBROSIS PROGRESSION” (THE BOARD OF REGENTS OF THE UNIVERSITY OF TEXAS SYSTEM, priority 2022, published 2026)
# Tested on: FPS and molecular pathways
# Assay: Modulation of FPS and molecular pathways in hepatic transcriptome (RNA-Seq, CES/GSEI) in CENTAUR trial biopsies
# Type: in vivo, human
# Conditions: for modulation of FPS genes: cenicriviroc arm
# Text: Archived formalin-fixed liver tissues from index biopsy were used for histological assessment in all patients (FIG. 1 and Table 1A-11) to confirm no to minimal fibrosis (METAVIR fibrosis stage F0 or F1). The PLS validation set 1 (and FPS derivation set 1) is a case-control series of 43 chronic hepatitis C patients from a prior cohort study consecutively diagnosed and followed at Johns Hopkins and Massachusetts General Hospital between 1998 and 2010. Twenty-five patients were co-infected with HIV and on anti-retroviral therapies. The patients were regularly followed up with ultrasound elastography at median interval of 1.1 (IQR: 0.6-2.0) years. Liver stiffness measurement >7.0 and >9.5 kPa were regarded as indication of F2 and F3 fibrosis, respectively. The PLS validation set 2 (and FPS derivation set 2) is a case-control series of 38 patients who consecutively underwent liver transplantation for HCV-related cirrhosis and protocol liver biopsies at year 1, 2, and 5 after transplantation (and additional biopsies as needed to evaluate graft rejection, which were excluded) at Baylor University between 2002 and 2007. Median number of biopsies was 8 (IQR: 6-9) per patient with median interval between serial biopsies of 8.6 (IQR: 0.3-12.6) months. […] The FPS derivation set 3 is a cross-sectional series of 31 NAFLD patients who underwent diagnostic liver biopsy at Hiroshima University between 2003 and 2015. The FPS derivation set 4 is a cross-sectional series of 309 NAFLD patients who underwent diagnostic liver biopsy (F0 or F1 fibrosis) at Massachusetts General Hospital between 2009 and 2016. […] The cases were defined as patients who had F-stage increase of one stage or more in the follow-up biopsy. The FPS validation set 2 includes 78 patients with fibrotic liver diseases from various etiologies, for which de-identified fresh liver tissues were available from standard-care hepatic resection for organotypic ex vivo tissue culture at University of Texas Southwestern and Mount Sinai. The FPS validation set 3 consists of NASH patients with F1-F3 fibrosis who underwent liver biopsy before and after 1-year treatment with cenicriviroc (n=9) or placebo (n=10) in the phase Ilb CENTAUR trial (NCT02217475). Decrease of one or more fibrosis stage was regarded as anti-fibrotic response. The serum surrogate FPS was assessed in archived de-identified serum samples from 79 patients with chronic liver diseases. The FPSec validation set is a cohort of 122 patients with compensated (Child-Pugh class A) cirrhosis patients with mixed etiologies enrolled at University of Michigan between 2004 and 2006 as reported in our previous study. Hepatic decompensation was defined as newly developed massive ascites, hepatic encephalopathy, bleeding from gastroesophageal varices, or liver transplantation. The study was approved by institutional review board at respective institutions with written informed consent or exemption for use of archived de-identified samples (protocol numbers: STU062018-058, STU072018-071, 2010P000220/PHS, HS13-00159).
# Total RNA was isolated from fixed tissue sections by using High Pure RNA Paraffin kit (Roche), and assessed for quality by qRT-PCR of RPL13A. Total RNA from the PCLS tissues was isolated using RNeasy kit (Qiagen). RNA samples (100-200 ng) were subjected to the PLS/FPS assay implemented in the nCounter platform (NanoString), and transcriptome profiling of the CENTAUR trial samples was performed by RNA-Seq (TrueSeq RNA Access, Illumina). Expression of BCL2, COL1A1, and ACTA2 genes was measured by qRT-PCR (Table 3). Serum protein profiling was performed by using xMAP assay (Luminex). […]
# [1] = Fibrosis not improved, NASH patients, Hallmark set, Cellular signaling
# [2] = Fibrosis not improved, NASH patients, Hallmark set, Inflammatory response, immunity
# [3] = Fibrosis not improved, NASH patients, Hallmark set, Metabolism, biosynthesis
# [4] = Fibrosis not improved, NASH patients, Hallmark set, Pathogenic response
# [5] = Fibrosis not improved, NASH patients, Hallmark set, Sex hormone signaling
# [6] = Fibrosis not improved, NASH patients, Hallmark set, Stress response
# [7] = Fibrosis not improved, NASH patients, Immune cell signature (GSE65136)
# [8] = Fibrosis not improved, NASH patients, Nuclear receptor signaling (curated pathway members)
# [9] = Fibrosis not improved, NASH patients, PPAR agonists on mouse primary hepatocytes (GSE27948)
smiles,measurement,setting,value
CCCCOCCOc1ccc(-c2ccc3c(c2)/C=C(/C(=O)Nc2ccc([S@@+]([O-])Cc4cncn4CCC)cc2)CCCN3CC(C)C)cc1 [Cenicriviroc],"NES, Mitotic spindle gene set","Fibrosis not improved, NASH patients, Hallmark set, Cell cycle, DNA damage, response",0.82
same,"NES, Apoptosis gene set","Fibrosis not improved, NASH patients, Hallmark set, Cell death",1.38
same,"NES, E2F targets gene set",[1],1.88
same,"NES, Hedgehog signaling gene set",[1],1.05
same,"NES, KRAS signaling gene set",[1],1.63
same,"NES, Myc targets v1 gene set",[1],2.19
same,"NES, Myc targets v2 gene set",[1],1.55
same,"NES, Notch signaling gene set",[1],0.84
same,"NES, PI3K/AKT/mTOR signaling gene set",[1],1.43
same,"NES, TGFβ signaling gene set",[1],−0.70
same,"NES, TNFα signaling via NF-κB gene set",[1],0.96
same,"NES, Wnt/β-catenin signaling gene set",[1],0.87
same,"NES, mTORC1 signaling gene set",[1],1.93
same,"NES, p53 pathway gene set",[1],1.03
same,"NES, Allograft rejection gene set",[2],2.25
same,"NES, IL2 STAT5 signaling gene set",[2],1.70
same,"NES, IL6 JAK STAT3 signaling gene set",[2],1.82
same,"NES, Inflammatory response gene set",[2],1.61
same,"NES, Interferon-α response gene set",[2],0.83
same,"NES, Interferon-γ response gene set",[2],1.39
same,"NES, Adipogenesis gene set",[3],−0.72
same,"NES, Bile acid metabolism gene set",[3],−1.36
same,"NES, Cholesterol homeostasis gene set",[3],0.99
same,"NES, Coagulation gene set",[3],1.33
same,"NES, Complement gene set",[3],1.37
same,"NES, Fatty acid metabolism gene set",[3],0.73
same,"NES, Glycolysis gene set",[3],1.43
same,"NES, Heme metabolism gene set",[3],−0.95
same,"NES, Oxidative phosphorylation gene set",[3],1.16
same,"NES, Peroxisome gene set",[3],−1.03
same,"NES, Protein secretion gene set",[3],1.30
same,"NES, Xenobiotic metabolism gene set",[3],0.79
same,"NES, Angiogenesis gene set",[4],1.64
same,"NES, Epithelial mesenchymal transition gene set",[4],1.98
same,"NES, Androgen response gene set",[5],1.63
same,"NES, Estrogen response early gene set",[5],1.07
same,"NES, Estrogen response late gene set",[5],1.18
same,"NES, Hypoxia gene set",[6],1.67
same,"NES, Myogenesis gene set",[6],1.73
same,"NES, Reactive oxygen species gene set",[6],1.24
same,"NES, UV response up gene set",[6],1.24
same,"NES, Unfolded protein response gene set",[6],1.41
same,"NES, B cell (naïve) gene set",[7],1.70
same,"NES, CD4 T cell (naïve) gene set",[7],1.93
same,"NES, CD8 T cell gene set",[7],2.31
same,"NES, DC (activate) gene set",[7],1.75
same,"NES, Gamma delta T cell gene set",[7],1.86
same,"NES, Macrophage (M1) gene set",[7],1.70
same,"NES, Macrophage (M2) gene set",[7],1.74
same,"NES, Mast cell (active) gene set",[7],1.50
same,"NES, Mast cell (rest) gene set",[7],1.71
same,"NES, Memory B cell gene set",[7],1.67
same,"NES, Memory T cell (rest) gene set",[7],2.25
same,"NES, Monocyte gene set",[7],1.50
same,"NES, NK cell (rest) gene set",[7],1.76
same,"NES, Neutrophil gene set",[7],1.42
same,"NES, Plasma cell gene set",[7],1.46
same,"NES, Regulatory T cell gene set",[7],1.99
same,"NES, T follicular helper cell gene set",[7],1.85
same,"NES, FXR pathway gene set",[8],−1.04
same,"NES, PPAR signaling gene set (first listed)",[8],−0.88
same,"NES, PPAR signaling gene set (second listed)",[8],−1.00
same,"NES, PPARα pathway gene set (first listed)",[8],−0.62
same,"NES, PPARα pathway gene set (second listed)",[8],−0.77
same,"NES, RAR/RXR pathway gene set",[8],−1.49
same,"NES, RXR/VDR pathway gene set",[8],−1.71
same,"NES, GW7647 (PPARa agonist) gene set","Fibrosis not improved, NASH patients, PPAR agonist on human primary hepatocytes (GSE53399)",−1.56
same,"NES, GW501516 (PPARd agonist) gene set",[9],−0.92
same,"NES, ROSIGLITAZONE (PPARg agonist) gene set",[9],−1.19
same,"NES, WY14643 (PPARa agonist) gene set",[9],1.17
same,"NES, PDGFRB target gene signature","Fibrosis not improved, NASH patients, iLINCS",−0.79
same,"modulation of RXR, RAR and FXR pathways",both responders and non-responders,no obvious induction
same,modulation of FPS genes,patients with histological fibrosis improvement,suppressed or unchanged
same,modulation of FPS genes,patients with no fibrosis improvement,generally induced
same,modulation of PPAR pathways,"fibrosis responders after 1-year treatment, non-responders lack it",enrichment
same,modulation of E2F signaling,fibrosis responders only,most strikingly suppressed
same,PPAR α target gene signature (vs δ and γ agonist signatures),transcriptional target gene signatures defined in mouse primary hepatocyte,dominantly induced
